# Results: US5095006A, “Renin inhibitors having all retro-inverted peptide bonds” (Bayer Aktiengesellschaft, priority 1989, dated 1992)
# Target: T1, endogenous renin from human plasma (Homo sapiens, UniProt P00797)
# T1 construct: rate of formation of angiotensin I from endogenous angiotensinogen and renin; from tissue; host or cells: pooled human plasma (EDTA)
# T1 sequence (P00797 67-406): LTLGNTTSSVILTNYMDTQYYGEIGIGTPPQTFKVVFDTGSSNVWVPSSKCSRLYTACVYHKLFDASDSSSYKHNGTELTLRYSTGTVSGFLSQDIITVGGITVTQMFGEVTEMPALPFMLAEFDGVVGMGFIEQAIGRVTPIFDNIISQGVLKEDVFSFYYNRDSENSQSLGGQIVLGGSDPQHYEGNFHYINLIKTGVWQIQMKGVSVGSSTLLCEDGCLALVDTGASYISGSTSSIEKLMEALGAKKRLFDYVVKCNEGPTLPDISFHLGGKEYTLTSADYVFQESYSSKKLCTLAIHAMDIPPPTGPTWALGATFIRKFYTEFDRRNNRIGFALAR
# Assay: In vitro test: inhibition of plasma renin activity (angiotensin I formation, radioimmunoassay)
# Type: biochemical
# Details: pooled human plasma, 37° C., pH 5.6
# Method: The plasma renin activity (PRA) is determined by incubation at 37° C. as the rate of formation of angiotensin I from endogenous angiotensinogen and renin. […] The angiotensin I formed per unit of time is determined by radioimmunoassay (Sorin Biomedica, Italy).
# The percentage inhibition of the plasma renin activity is calculated by comparison […].
compound,measurement,value
"CC(C)CNC(=O)[C@@H](Cc1ccccc1)NC(=O)[C@@H](Cc1c[nH]cn1)NC(=O)[C@H](Cc1ccccc1)[C@@H](O)CNC(=O)OC(C)(C)C [Example 78, (N-tert.-Butoxycarbonyl)amino-2-R,S-benzyl-3-R,S-hydroxybutyryl-D-histidyl-D-phenylalanine-(2-methylpropyl)amide]",Inhibition at 0.05 mg/ml [%],100%
"CC(C)(C)OC(=O)N(Cc1ccccc1)CC(O)C(Cc1ccccc1)C(=O)N[C@H](Cc1c[nH]cn1)C(=O)O (stereo partly drawn) [Example 74, 4-(N-tert.-Butoxycarbonyl-N-benzyl)amino-2-R,S-benzyl-3-R,S-hydroxybutyryl-D-histidine]",Inhibition at 0.05 mg/ml [%],93%
"COC(=O)[C@@H](Cc1ccccc1)NC(=O)[C@@H](Cc1cnc[nH]1)NC(=O)C(Cc1ccccc1)C(O)CN(Cc1ccccc1)C(=O)Cc1cccnc1 (stereo partly drawn) [Example 103, 4-[N-Benzyl-N-(3-pyridyl)acetyl]amino-2-R,S-benzyl-3-R,S-hydroxybutyryl-D-histidyl-D-phenylalanine methyl ester]",Inhibition at 0.05 mg/ml [%],88%
"O=C(NC1CCCC1)[C@@H](Cc1ccccc1)NC(=O)[C@@H](Cc1c[nH]cn1)NC(=O)[C@H](Cc1ccccc1)[C@@H](O)CN1C(=O)c2ccccc2C1=O [Example 72, 4-(N-Phthalyl)amino-2-R,S-benzyl-3R,S-hydroxybutyryl-D-histidyl-D-phenylalanine(cyclopentyl)amide]",Inhibition at 0.05 mg/ml [%],100%
"O=C(N[C@H](Cc1cnc[nH]1)C(=O)N[C@H](Cc1ccccc1)C(=O)OCc1ccccc1)C(Cc1ccccc1)C(O)CN1C(=O)c2ccccc2C1=O (stereo partly drawn) [Example 70, 4-(N-Phthalyl)amino-2-R,S-benzyl-3R,S-hydroxybutyryl-D-histidyl-D-phenylalanine benzyl ester]",Inhibition at 0.05 mg/ml [%],100%
"CC(C)CNC(=O)[C@@H](Cc1ccccc1)NC(=O)[C@@H](Cc1cnc[nH]1)NC(=O)C(Cc1ccccc1)C(O)CNC(=O)c1ccccc1C(=O)O (stereo partly drawn) [Example 90, 4-[N-(2-Carboxy)benzoyl]amino-2-R,S-benzyl-3-R,S-hydroxybutyryl-D-histidyl-D-phenylalanine-(2-methyl) propylamide]",Inhibition at 0.05 mg/ml [%],63%
"O=C(O)[C@@H](Cc1ccccc1)NC(=O)[C@@H](Cc1c[nH]cn1)NC(=O)[C@H](Cc1ccccc1)[C@@H](O)CN1C(=O)c2ccccc2C1=O [Example 71, 4-(N-Phthalyl)amino-2-R,S-benzyl-3R,S-hydroxybutyryl-D-histidyl-D-phenylalanine]",Inhibition at 0.05 mg/ml [%],92%
"CC(C)(C)OC(=O)N(Cc1ccccc1)CC(O)C(Cc1ccccc1)C(=O)N[C@H](Cc1cnc[nH]1)C(=O)N[C@H](Cc1ccccc1)C(=O)O (stereo partly drawn) [Example 76, 4-(N-tert.-Butoxycarbonyl-N-benzyl)amino-2-R,S-benzyl-3-R,S-hydroxybutyryl-D-histidyl-D-phenylalanine]",Inhibition at 0.05 mg/ml [%],78%
"CC(C)(C)OC(=O)N(Cc1ccccc1)C[C@H](O)[C@@H](Cc1ccccc1)C(=O)N[C@H](Cc1c[nH]cn1)C(=O)N[C@H](Cc1ccccc1)C(=O)N1CCOCC1 [Example 77, 4-(N-tert.-Butoxycarbonyl-N-benzyl)amino-2-R,S-benzyl-3-R,S-hydroxybutyryl-D-histidyl-D-phenylalanine-(N-morpholino)amide]",Inhibition at 0.05 mg/ml [%],100%
